Literature values as cited in article PMC7179450, “Primary Human Hepatocytes, But not HepG2 or Balb/c 3T3 Cells, Efficiently Metabolize Salinomycin and Are Resistant to Its Cytotoxicity” (Molecules, 2020).
Read-outs that look alike come from different tables or passages of the source.

Tested on: all tested cell models
Set-up: method as in PMID 30012479
Settings: cited from earlier work

SMILES	cytotoxicity at tested concentrations (tiamulin 1 or 10 µg/mL)	cytotoxicity at tested concentrations (prednisolone 1 µg/mL)
C=C[C@]1(C)C[C@@H](OC(=O)CSCCN(CC)CC)[C@]2(C)[C@H](C)CC[C@]3(CCC(=O)[C@H]32)[C@@H](C)[C@@H]1O [tiamulin]	non-cytotoxic	
C[C@]12C=CC(=O)C=C1CC[C@@H]1[C@@H]2[C@@H](O)C[C@@]2(C)[C@H]1CC[C@]2(O)C(=O)CO [prednisolone]		non-cytotoxic
